pIC50: −log10 of the molar value.
Tests used:
[1] = target: Delta-5-Desaturase (D5D) (Mus musculus (Mouse), UniProt Q920L1); experiment: In vivo measurement of Delta-5-Desaturase inhibitory activity (plasma AA/DGLA ratio in DIO mice); details: single oral dose 30 mg/kg, read-out: Average % D5D Inhibition expressed as Plasma Endogenous AA/DGLA Ratio
Procedure: In vivo Measurement of Delta-5-Desaturase Inhibitory Activity
Diet-induced obese (DIO; Jackson Laboratories strain #3800050) mice were used to screen for pharmacodynamic (PD) activity of test compounds. Generally, 14 to 24 week old DIO mice, were administered test compounds formulated in the vehicle of 2% hydroxypropyl methylcellulose (HPMC) and 1% Tween80. Animals were dosed on body weight by oral gavage with a single dose (30 mg/kg) for PD studies. Necropsy included plasma collection for PUFA analysis. 10 μl of plasma or standards diluted in surrogate matrix (65 g/l bovine serum albumin in Dulbecco's phosphate-buffered saline) were mixed with 10 μl of an internal standard (100 μM alpha-linolenic acid-d14 (ALA-d14, Cayman Chemical)) in a 96 well plate. 100 μl of 2N NAOH was added to the mixture for subsequent saponification at 65° C. for 1 hour. The mixture was then acidified with 50 μl of formic acid followed by two consecutive hexane extractions. Hexane (500 μl) was added and the mixture thoroughly mixed by vortexing, followed by centrifugation at 4,000 rpm for 15 min. The hexane phase was transferred to a new 1 ml 96 well plate and the remaining aqueous layer was extracted with hexane. The organic extracts were combined and the solvent was removed by placing the plate under nitrogen gas at 55° C. 250 μl of 90% methanol was added to the plate followed by vortexing for 2 minutes. 200 μl of the samples were transferred to a new 96 well polypropylene plate. The samples were analyzed on a LC-MS/MS for the following PUFAs: arachidonic acid (AA), dihomo-gamma-linolenic acid (DGLA), with ALA-d14 as the internal standard. Description of the LC-MS/MS method: 5 μl of sample was injected onto a Poroshell 120 EC-C18 3.0×50 mm, 1.9 μm id column. […] The PUFA peak areas were quantified by using the SCIEX Analyst software. […] The relative decrease of the AA/DGLA ratio of the test compound administered group relative to the vehicle administered group was calculated and used as an index for the degree of D5D inhibition.
The results presented in Table 27 were obtained using certain compounds described herein in the in vivo protocol described above.

[2] = target: Delta-5-Desaturase (D5D) (Homo sapiens (Human), UniProt O60427); experiment: In vitro measurement of Delta-5-Desaturase inhibitory activity using DGLA-CoA and Arachidonyl-CoA mass spectrometric assays; assay type: biochemical; details: membrane preparations of D5D-overexpressing HEK293 6E cells; averaged over at least two independent runs
Chain of Delta-5-Desaturase (D5D) (Homo sapiens (Human), UniProt O60427) (O60427 whole entry, species assumed): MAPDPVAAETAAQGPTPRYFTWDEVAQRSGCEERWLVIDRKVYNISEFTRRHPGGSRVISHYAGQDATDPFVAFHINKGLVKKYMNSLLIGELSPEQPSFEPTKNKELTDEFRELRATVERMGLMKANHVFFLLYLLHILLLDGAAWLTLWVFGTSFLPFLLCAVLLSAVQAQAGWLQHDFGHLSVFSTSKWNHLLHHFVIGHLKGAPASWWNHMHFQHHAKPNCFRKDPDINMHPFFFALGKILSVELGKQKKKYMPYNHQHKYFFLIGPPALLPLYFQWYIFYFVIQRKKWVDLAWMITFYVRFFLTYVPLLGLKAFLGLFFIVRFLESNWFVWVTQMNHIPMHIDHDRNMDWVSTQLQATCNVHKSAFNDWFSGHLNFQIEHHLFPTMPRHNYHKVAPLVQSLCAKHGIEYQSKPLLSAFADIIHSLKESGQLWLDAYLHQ
Outline: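 Membranes from D5D-overexpressing HEK293 6E cells (10 μg/mL final) in Tris pH 7.5 with MgCl2, octyl glucoside and TCEP were mixed 1:1 with substrate solution (0.01 mM DGLA, 0.25 mM NADH, 0.25 mM ATP, 0.05 mM CoA) for 1 h at ambient temperature. RapidFire SPE-MS/MS MRM; IC50 by 4-parameter fit, ≥2 runs.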

Chain of Delta-5-Desaturase (D5D) (Mus musculus (Mouse), UniProt Q920L1) (Q920L1 whole entry): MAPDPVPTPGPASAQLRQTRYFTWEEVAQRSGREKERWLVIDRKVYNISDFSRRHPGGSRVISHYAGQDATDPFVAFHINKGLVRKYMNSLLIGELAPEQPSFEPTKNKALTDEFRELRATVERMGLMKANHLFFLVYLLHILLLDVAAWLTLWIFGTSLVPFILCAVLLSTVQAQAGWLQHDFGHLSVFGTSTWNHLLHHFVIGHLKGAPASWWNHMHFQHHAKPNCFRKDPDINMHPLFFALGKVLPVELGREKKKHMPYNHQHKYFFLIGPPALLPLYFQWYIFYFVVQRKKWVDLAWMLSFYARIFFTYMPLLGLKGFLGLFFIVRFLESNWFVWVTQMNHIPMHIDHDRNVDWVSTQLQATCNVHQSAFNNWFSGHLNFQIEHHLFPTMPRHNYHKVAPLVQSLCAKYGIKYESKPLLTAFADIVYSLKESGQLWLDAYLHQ

Row | Compound | inhibition in vivo at 30 mg/kg [1] [%] | pIC50 [2]
1 | COc1ccn2c(=O)c(-c3ccc(OCC4CC4(F)F)cc3)c(C(F)(F)F)nc2c1 (stereo not shown) [Example 1-4, 3-(4-((2,2-difluorocyclopropyl)methoxy)phenyl)-8-methoxy-2-(trifluoromethyl)-4H-pyrido[1,2-a]pyrimidin-4-one] | 60 | 8.18
2 | COc1ccn2c(=O)c(-c3ccc(OCC4CC4)cc3)c(C(F)(F)F)nc2c1 [Example 1-8, 3-(4-(cyclopropylmethoxy)phenyl)-8-methoxy-2-(trifluoromethyl)-4H-pyrido[1,2-a]pyrimidin-4-one] | 62 | 8.29
3 | COc1ccn2c(=O)c(-c3ccc(OC(F)(F)F)cc3F)c(C(F)(F)F)nc2c1 [Example 1-9, 3-(2-fluoro-4-(trifluoromethoxy)phenyl)-8-methoxy-2-(trifluoromethyl)-4H-pyrido[1,2-a]pyrimidin-4-one] | 35 | –
4 | COc1ccn2c(=O)c(-c3ccc(OCC(F)F)cc3)c(C(F)(F)F)nc2c1 [Example 1-10, 3-(4-(2,2-difluoroethoxy)phenyl)-8-methoxy-2-(trifluoromethyl)-4H-pyrido[1,2-a]pyrimidin-4-one] | 75 | 8.10
5 | COc1ccn2c(=O)c(-c3ccc(OCC(F)(F)F)cc3)c(C(F)F)nc2c1 [Example 1-15, 2-(difluoromethyl)-8-methoxy-3-(4-(2,2,2-trifluoroethoxy)phenyl)-4H-pyrido[1,2-a]pyrimidin-4-one] | 70 | 7.91
6 | COc1ccn2c(=O)c(-c3ccc(OCC(F)(F)F)cc3F)c(C(F)(F)F)nc2c1 [Example 1-20, 3-(2-fluoro-4-(2,2,2-trifluoroethoxy)phenyl)-8-methoxy-2-(trifluoromethyl)-4H-pyrido[1,2-a]pyrimidin-4-one] | 78 | 8.05
7 | CN(C)c1ccn2c(=O)c(-c3cnn(CC(F)(F)C(F)(F)F)c3)c(C(F)(F)F)nc2c1 [Example 1-22, 8-(dimethylamino)-3-(1-(2,2,3,3,3-pentafluoropropyl)-1H-pyrazol-4-yl)-2-(trifluoromethyl)-4H-pyrido[1,2-a]pyrimidin-4-one] | 59 | 6.92
8 | CNc1ccn2c(=O)c(-c3cnn(CC(F)(F)C(F)(F)F)c3)c(C(F)(F)F)nc2c1 [Example 1-23, 8-(methylamino)-3-(1-(2,2,3,3,3-pentafluoropropyl)-1H-pyrazol-4-yl)-2-(trifluoromethyl)-4H-pyrido[1,2-a]pyrimidin-4-one] | 57 | 7.70
9 | CNc1ccn2c(=O)c(-c3ccc(OCC(F)(F)F)cc3)c(C(F)(F)F)nc2c1 [Example 1-29, 8-(methylamino)-3-(4-(2,2,2-trifluoroethoxy)phenyl)-2-(trifluoromethyl)-4H-pyrido[1,2-a]pyrimidin-4-one] | 77 | 8.15
10 | [2H]C([2H])([2H])Oc1ccn2c(=O)c(-c3cnn(CC(F)(F)C(F)(F)F)c3)c(C(F)(F)F)nc2c1 [Example 1-33, 8-(methyloxy-d3)-3-(1-(2,2,3,3,3-pentafluoropropyl)-1H-pyrazol-4-yl)-2-(trifluoromethyl)-4H-pyrido[1,2-a]pyrimidin-4-one] | 84 | 7.76
11 | COc1ccn2c(=O)c(-c3cnn(CC(C)(F)F)c3)c(C(F)(F)F)nc2c1 [Example 1-39, 3-(1-(2,2-difluoropropyl)-1H-pyrazol-4-yl)-8-methoxy-2-(trifluoromethyl)-4H-pyrido[1,2-a]pyrimidin-4-one] | 62 | 7.37
12 | Nc1ccn2c(=O)c(-c3ccc(OCC(F)(F)F)cc3)c(C(F)(F)F)nc2c1 [Example 6-2, 8-amino-3-(4-(2,2,2-trifluoroeth-oxy)phenyl)-2-(trifluoromethyl)-4H-pyrido[1,2-a]pyrimidin-4-one] | 66 | –

— patent US12473289B2, “Heterocyclic compounds as delta-5 desaturase inhibitors and methods of use” (Amgen Inc., priority 2019, dated 2025)
